# Test results: US5395610A, “Agents for potentiating the effects of antitumor agents and combating multiple drug resistance” (Burroughs-Wellcome Co., priority 1989, dated 1995)
# *1 amine or outer side, *2 acyl side, *3 side chain or, on linkers, in order; H or OH if unused. Where a SMILES comes first, the peptide text is derived from it. Bridges are numbered along the chain shown (N, C = ends). Roman numbers before positions name the chains, in order. [ ]: non-standard residue; d: D form. Actinocin(9to1) = Cc1c2oc3c(C)ccc(C(=O)[*:1])c3nc-2c(C(=O)[*:2])c(N)c1=O; NMeV = CN[C@H](C(=O)O)C(C)C; Sar = CNCC(=O)O
# Legend:
# [1] = system: Chinese hamster ovary (CHO) cells, wildtype AuxB1; test: cells; format: cell-based; details: Cricetulus griseus, AuxB1, read-out: reduction in cell number below the value of completely untreated cultures
# [2] = system: resistant sublines of murine leukemia cells; details: cited from earlier work
Compound,inhibition at 0.01 µM [1] [%],enhancement of the activity of antitumor agents against resistant sublines of murine leukemia cells [2]
"Cc1c2oc3c(C)ccc(C(=O)N[C@@H]4C(=O)N[C@H](C(C)C)C(=O)N5CCC[C@H]5C(=O)N(C)CC(=O)N(C)[C@@H](C(C)C)C(=O)O[C@@H]4C)c3nc-2c(C(=O)N[C@@H]2C(=O)N[C@H](C(C)C)C(=O)N3CCC[C@H]3C(=O)N(C)CC(=O)N(C)[C@@H](C(C)C)C(=O)O[C@@H]2C)c(N)c1=O [Actinomycin D, reference compound] (I: T[dV]P[Sar][NMeV] / II: T[dV]P[Sar][NMeV]; ester I:1-I:C, II:1-II:C; linker I:N-II:N via Actinocin(9to1))",10 to 20,
CCN(CC)CCn1c(=O)c(Cc2ccc(OC)cc2)nc2ccccc21 [caroverine],,enhance the activity of antitumor agents
C=C[C@H]1C[N@@]2CC[C@H]1C[C@@H]2[C@@H](O)c1ccnc2ccc(OC)cc12 [quinidine],,enhance the activity of antitumor agents
COC(=O)C1=C(C)NC(C)=C(C(=O)OCCN(C)Cc2ccccc2)C1c1cccc([N+](=O)[O-])c1 (centres unmarked) [nicardipine],,enhance the activity of antitumor agents
COc1ccc([C@@H]2Sc3ccccc3N(CCN(C)C)C(=O)[C@@H]2OC(C)=O)cc1 [diltiazem],,enhance the activity of antitumor agents
